Experiment [1] concerns the target T1, human TRPV1 (Homo sapiens, UniProt Q8NER1).
T1 construct: expressed in transfected cells
Kind of experiment: Capsaicin Activation Assay (FLIPR intracellular Ca2+, recombinant HEK293 cells). Type of experiment: cell-based. The conditions noted are these: recombinant HEK293 cells expressing hTRPV1; 50 nM capsaicin; read-out: human TRPV1 capsaicin IC50. On the procedure:
(i) Capsaicin Activation Assay
Dulbecco's modified Eagle medium (DMEM) (with 4.5 mg/mL glucose) and fetal bovine serum were obtained from Hyclone Laboratories, Inc. (Logan, Utah). Dulbecco's phosphate-buffered saline (DPBS) (with 1 mg/mL glucose and 3.6 mg/l Na pyruvate, without phenol red), L-glutamine, hygromycin B, and Lipofectamine® were obtained from Life Technologies (Grand Island, N.Y.). G418 sulfate was obtained from Calbiochem-Novabiochem Corp. (San Diego, Calif.). Capsaicin (8-methyl-N-vanillyl-6-nonenamide) was obtained from Sigma-Aldrich, Co. (St. Louis, Mo.). Fluo-4 AM (N-[4-[6-[(acetyloxy)-methoxy]-2,7-difluoro-3-oxo-3H-xanthen-9-yl]-2-[2-[2-[bis[2-[(acetyloxy)methoxy]-2-oxyethyl]amino]-5-methylphenoxy]ethoxy]phenyl]-N-[2-[(acetyloxy)methoxy]-2-oxyethyl]-glycine, (acetyloxy)methyl ester) was purchased from Molecular Probes (Eugene, Oreg.).
(§1) Expression plasmids encoding the hTRPV1 cDNA were transfected into HEK293 cells using Lipofectamine®. Forty-eight hours after transfection, the neomycin-resistant cells were selected with growth medium containing 800 μg/mL Geneticin (Life Technologies, formerly Gibco BRL). Surviving individual colonies were isolated and screened for TRPV1 activity. Cells expressing recombinant TRPV1 were maintained at 37° C. in DMEM containing 4 mM L-glutamine, 300 μg/mL G418 (Calbiochem) and 10% fetal bovine serum under a humidified 5% CO2 atmosphere.
The functional activity of compounds at the TRPV1 receptor was determined by measurement of intracellular Ca^2+ levels ([Ca^2+]i) using the Fluorescence Imaging Plate Reader (FLIPR)TETRA®. All compounds were tested over a 12-point one-third-log concentration range. Compound stocks, 10 mM, were prepared in DMSO, and diluted serially across a 384-well plate using a Bravo BenchCel workstation (Agilent Technologies, Santa Clara, Calif.). A stock concentration of capsaicin (10 mM) was made in DMSO, and diluted in DPBS to a final concentration of 200 nM (4×). On the day prior to the experiment, the recombinant HEK293 cells expressing human TRPV1 (hTRPV1) were removed from tissue culture flasks and plated in growth medium into black-walled clear-bottom 384-well Biocoat™ poly-D-lysine assay plates (BD Biosciences, Bedford, Mass.) using a Multidrop® dispenser (ThermoScientific, Waltham, Mass.). […] The plated cells were incubated for 90-120 minutes in the dark at room temperature and then test compound was added to each well. Three minutes later, 200 nM capsaicin (4×) solution was added to each well in an amount sufficient to provide a final assay volume of 80 μL and capsaicin concentration of 50 nM. Fluorescence readings were made at 1 to 5 second intervals over the course of the experimental run. The peak increase in relative fluorescence units (minus baseline) was calculated, and expressed as a percentage of the 50 nM capsaicin (control) response.

In experiment [2] the target is T1, human TRPV1. Kind of experiment: Acid Activation Assay (pH 5.0, FLIPR intracellular Ca2+, recombinant HEK293 cells). Type of experiment: cell-based. The conditions noted are these: percentage of maximal pH 5.0-induced response remaining; HEK293 hTRPV1; max concentration 37.5 μM. The method, then:
(ii) Acid Activation Assay
Dulbecco's modified Eagle's medium (DMEM) with 4.5 mg/mL D-glucose, fetal bovine serum, L-glutamine, and 2-morpholinoethanesulfonic acid (MES) were purchased from Sigma-Aldrich Co. (St. Louis, Mo.). […] The FLIPR® Calcium 4 assay kit was purchased from Molecular Devices (Sunnyvale, Calif.).
as §1
The functional activity of compounds at the TRPV1 receptor was determined by measurement of intracellular Ca^2+ levels ([Ca^2+]i) using the Fluorescence Imaging Plate Reader (FLIPR)TETRA®. […] Compound stocks, 10 mM, were prepared in DMSO, and diluted serially across a 384-well plate using a Bravo BenchCel workstation (Agilent Technologies, Santa Clara, Calif.). On the day prior to the experiment, the recombinant HEK293 cells expressing human TRPV1 (hTRPV1) were removed from tissue culture flasks and plated in growth medium into black-walled clear-bottom 384-well Biocoat™ poly-D-lysine assay plates (BD Biosciences, Bedford, Mass.) using a Multidrop® dispenser (ThermoScientific, Waltham, Mass.). […] The plated cells were incubated for 90-120 min in the dark at 25° C. The test compounds dissolved in DMSO were then added to the plates using an Agilent Bravo workstation (Agilent Technologies Inc., Santa Clara, Calif.). Three minutes later, a pH 5.0 solution was added to each well. Reagents were delivered at a rate of 40 μL/sec, and the final assay volume was 80 μL. Acidic pH solutions were prepared by titration of DPBS/MES with 1 N HCl. The intensity of the fluorescence was captured and digitally transferred to an interfaced PC. The maximum peak measured for the concentration range tested was used to calculate the corresponding peak increase in fluorescence over baseline (relative fluorescence units) which was expressed as the percentage (max % remain) of the maximal pH 5.0-induced response.

T1 sequence (Q8NER1 whole entry): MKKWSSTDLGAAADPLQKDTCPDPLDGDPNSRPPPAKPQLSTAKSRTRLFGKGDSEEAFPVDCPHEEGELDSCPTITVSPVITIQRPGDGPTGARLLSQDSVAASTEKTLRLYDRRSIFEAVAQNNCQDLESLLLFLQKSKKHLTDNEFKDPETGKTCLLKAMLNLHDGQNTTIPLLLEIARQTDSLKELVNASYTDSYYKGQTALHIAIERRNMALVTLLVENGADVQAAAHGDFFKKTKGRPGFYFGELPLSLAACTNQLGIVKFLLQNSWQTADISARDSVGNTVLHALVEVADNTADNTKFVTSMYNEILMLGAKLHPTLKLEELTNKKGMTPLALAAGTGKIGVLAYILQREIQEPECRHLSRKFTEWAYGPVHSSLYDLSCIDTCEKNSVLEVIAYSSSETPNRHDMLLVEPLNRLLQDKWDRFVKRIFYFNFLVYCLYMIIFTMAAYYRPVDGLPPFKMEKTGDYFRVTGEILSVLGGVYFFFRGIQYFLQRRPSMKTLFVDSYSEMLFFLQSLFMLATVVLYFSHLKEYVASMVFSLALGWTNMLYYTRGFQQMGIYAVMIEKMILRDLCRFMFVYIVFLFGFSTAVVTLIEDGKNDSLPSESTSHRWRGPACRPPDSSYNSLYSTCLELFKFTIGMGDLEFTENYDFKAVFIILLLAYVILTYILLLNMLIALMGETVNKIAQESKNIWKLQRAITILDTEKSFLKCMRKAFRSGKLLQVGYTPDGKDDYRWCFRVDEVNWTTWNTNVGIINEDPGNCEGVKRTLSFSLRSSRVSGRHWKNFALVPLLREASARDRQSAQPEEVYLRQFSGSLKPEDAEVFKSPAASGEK

As usually defined, the IC50 is the concentration at which inhibition is half-maximal. Consider `O=C(Nc1cccc2c1C[C@@H](O)C2)N[C@@H]1CC(CF)(CF)Oc2c(F)cccc21` [Example 87, 1-[(4R)-8-fluoro-2,2-bis(fluoromethyl)-3,4-dihydro-2H-chromen-4-yl]-3-[(2S)-2-hydroxy-2,3-dihydro-1H-inden-4-yl]urea], for which the IC50 on human TRPV1 [1] was found to be 1200 nM. Also, on human TRPV1 [2], the “human TRPV1 H+ (max % remain)” value amounted to 50%.
The like results for `O=C(Nc1cccc2c1C[C@H](O)C2)N[C@@H]1COc2ccc(Cl)cc2C1` [Example 27, 1-[(3S)-6-chloro-3,4-dihydro-2H-chromen-3-yl]-3-[(2R)-2-hydroxy-2,3-dihydro-1H-inden-4-yl]urea] were, in that order, 97 nM and 11%.
Consider `O=C(Nc1cccc2c1C[C@H](O)C2)N[C@@H]1CC2(CCC2)Oc2ccc(F)cc21` [Example 8, 1-[(4R)-6-fluoro-3,4-dihydrospiro[chromene-2,1′-cyclobutan]-4-yl]-3-[(2R)-2-hydroxy-2,3-dihydro-1H-inden-4-yl]urea], for which the IC50 at human TRPV1 [1] was determined as 35 nM. Besides, on human TRPV1 [2], the “human TRPV1 H+ (max % remain)” value was found to be 50%.
Regarding `CCCC1(CCC)C[C@@H](NC(=O)Nc2cccc3c2C[C@H](O)C3)c2cc(F)ccc2O1` [Example 56, 1-[(4R)-6-fluoro-2,2-dipropyl-3,4-dihydro-2H-chromen-4-yl]-3-[(2R)-2-hydroxy-2,3-dihydro-1H-inden-4-yl]urea], at human TRPV1 [1], the 50% inhibitory concentration (IC50) was determined as 46 nM. On human TRPV1 [2], the “human TRPV1 H+ (max % remain)” value is recorded as 96%.
Consider `O=C(Nc1cccc2c1C[C@H](O)C2)N[C@@H]1CC(CF)(CF)Oc2ccc(F)cc21` [Example 57, 1-[(4R)-6-fluoro-2,2-bis(fluoromethyl)-3,4-dihydro-2H-chromen-4-yl]-3-[(2R)-2-hydroxy-2,3-dihydro-1H-inden-4-yl]urea], for which, on human TRPV1 [1], the IC50 amounted to 570 nM. The “human TRPV1 H+ (max % remain)” value on human TRPV1 [2] is on record as 63%.
`COc1ccc(C2COc3ccccc3C2NC(=O)Nc2cccc3c2CC(O)C3)cc1` (centres unmarked) [Example 116, 1-(2-hydroxy-2,3-dihydro-1H-inden-4-yl)-3-[3-(4-methoxyphenyl)-3,4-dihydro-2H-chromen-4-yl]urea]: the IC50 on human TRPV1 [1] came out at 4100 nM. Also, at human TRPV1 [2], the “human TRPV1 H+ (max % remain)” value was found to be 94%.
On to `CC1(C)C[C@@H](NC(=O)Nc2ccc(F)c3c2C[C@H](O)C3)c2ccc(C(F)(F)F)cc2O1` [Example 140, 1-[(4R)-2,2-dimethyl-7-(trifluoromethyl)-3,4-dihydro-2H-chromen-4-yl]-3-[(2S)-7-fluoro-2-hydroxy-2,3-dihydro-1H-inden-4-yl]urea], for which the IC50 on human TRPV1 [1] was determined as 58 nM. The “human TRPV1 H+ (max % remain)” value on human TRPV1 [2] worked out at 2%.
For `CC1(C)C[C@@H](NC(=O)Nc2ccc(F)c3c2C[C@H](O)C3)c2ccccc2O1` [Example 145, 1-[(4R)-2,2-dimethyl-3,4-dihydro-2H-chromen-4-yl]-3-[(2S)-7-fluoro-2-hydroxy-2,3-dihydro-1H-inden-4-yl]urea], the IC50 on human TRPV1 [1] was determined as 3200 nM. At human TRPV1 [2], the “human TRPV1 H+ (max % remain)” value is given as 7%.
The corresponding values for `O=C(Nc1cccc2c1C[C@@H](O)C2)N[C@H]1CC(CF)(CF)Oc2cc(Cl)ccc21` [Example 98, 1-[(4S)-7-chloro-2,2-bis(fluoromethyl)-3,4-dihydro-2H-chromen-4-yl]-3-[(2S)-2-hydroxy-2,3-dihydro-1H-inden-4-yl]urea] are 500 nM and 13%.
For `Cc1c(F)ccc2c1OC(C)(C)C[C@H]2NC(=O)Nc1cccc2c1C[C@H](O)C2` [Example 62, 1-[(4R)-7-fluoro-2,2,8-trimethyl-3,4-dihydro-2H-chromen-4-yl]-3-[(2R)-2-hydroxy-2,3-dihydro-1H-inden-4-yl]urea], at human TRPV1 [1], the IC50 was found to be 20 nM. At human TRPV1 [2], the “human TRPV1 H+ (max % remain)” value came out at 86%.
For the compound `O=C(Nc1cccc2c1C[C@H](O)C2)N[C@@H]1CCc2cc(F)ccc21` [Example 92, 1-[(1R)-5-fluoro-2,3-dihydro-1H-inden-1-yl]-3-[(2R)-2-hydroxy-2,3-dihydro-1H-inden-4-yl]urea], the IC50 at human TRPV1 [1] worked out at 270 nM. Moreover, the “human TRPV1 H+ (max % remain)” value at human TRPV1 [2] stood at 60%.
The like results for `O=C(Nc1cccc2c1C[C@H](O)C2)N[C@@H]1CC2(CCC2)Oc2cc(C(F)(F)F)ccc21` [Example 42, 1-[(2R)-2-hydroxy-2,3-dihydro-1H-inden-4-yl]-3-[(4R)-7-(trifluoromethyl)-3,4-dihydrospiro[chromene-2,1′-cyclobutan]-4-yl]urea] were, in that order, 54 nM and 20%.
Take `O=C(Nc1cccc2c1C[C@@H](O)C2)N[C@@H]1CC(CF)(CF)Oc2c(Cl)cccc21` [Example 75, 1-[(4R)-8-chloro-2,2-bis(fluoromethyl)-3,4-dihydro-2H-chromen-4-yl]-3-[(2S)-2-hydroxy-2,3-dihydro-1H-inden-4-yl]urea]: the IC50 at human TRPV1 [1] amounted to 120 nM. The “human TRPV1 H+ (max % remain)” value on human TRPV1 [2] amounted to 40%.
In the case of `O=C(Nc1ccc(F)c2c1C[C@H](O)C2)N[C@@H]1CC(CF)(CF)Oc2c1ccc(Cl)c2F` [Example 144, 1-[(4R)-7-chloro-8-fluoro-2,2-bis(fluoromethyl)-3,4-dihydro-2H-chromen-4-yl]-3-[(2S)-7-fluoro-2-hydroxy-2,3-dihydro-1H-inden-4-yl]urea], the IC50 at human TRPV1 [1] stood at 400 nM. For the same compound, the “human TRPV1 H+ (max % remain)” value on human TRPV1 [2] is listed as 2%.
For the compound `CN1CC[C@@H](NC(=O)Nc2ccc(F)c3c2C[C@H](O)C3)c2ccc(C(F)(F)F)cc21` [Example 148, 1-[(2S)-7-fluoro-2-hydroxy-2,3-dihydro-1H-inden-4-yl]-3-[(4R)-1-methyl-7-(trifluoromethyl)-1,2,3,4-tetrahydroquinolin-4-yl]urea], the IC50 at human TRPV1 [1] was 3100 nM. Also, the “human TRPV1 H+ (max % remain)” value at human TRPV1 [2] is 21%.
Consider `Cc1nc(Nc2cccc3c2C[C@H](O)CC3)oc1-c1ccc(C(F)(F)F)cc1` [Example D, reference compound], for which the “human TRPV1 H+ (max % remain)” value on human TRPV1 [2] was found to be 3%.
Take `CC1(C)C[C@@H](NC(=O)Nc2ccc(F)c3c2C[C@@H](O)C3)c2cccc(F)c2O1` [Example 157, 1-[(4R)-8-fluoro-2,2-dimethyl-3,4-dihydro-2H-chromen-4-yl]-3-[(2R)-7-fluoro-2-hydroxy-2,3-dihydro-1H-inden-4-yl]urea]: the IC50 on human TRPV1 [1] turned out to be 1800 nM. Moreover, the “human TRPV1 H+ (max % remain)” value on human TRPV1 [2] is on record as 59%.
As to `O=C(Nc1cccc2c1C[C@H](O)C2)N[C@@H]1CCOc2cc(F)ccc21` [Example 65, 1-[(4R)-7-fluoro-3,4-dihydro-2H-chromen-4-yl]-3-[(2R)-2-hydroxy-2,3-dihydro-1H-inden-4-yl]urea], at human TRPV1 [1], the IC50 was determined as 270 nM. Moreover, the “human TRPV1 H+ (max % remain)” value on human TRPV1 [2] was 73%.
Turning to `CCC1(CC)C[C@@H](NC(=O)Nc2cccc3c2C[C@H](O)C3)c2ccc(Cl)cc2O1` [Example 54, 1-[(4R)-7-chloro-2,2-diethyl-3,4-dihydro-2H-chromen-4-yl]-3-[(2R)-2-hydroxy-2,3-dihydro-1H-inden-4-yl]urea], the 50% inhibitory concentration (IC50) at human TRPV1 [1] is 76 nM. For the same compound, the “human TRPV1 H+ (max % remain)” value at human TRPV1 [2] is given as 59%.
As for `CC(C)(C)c1ccc2c(c1)CC[C@H]2NC(=O)Nc1cccc2[nH]ncc12` [C, reference compound], the “human TRPV1 H+ (max % remain)” value at human TRPV1 [2] was determined as 1%.
